Experimental data from the CheMixHub viscosity set.

Assay: xn = mol fraction of the nth substance listed

CCCCCCN + C1CCCCC1
303.15 K, 101 kPa
Details | viscosity [mPa·s]
x2 = 0.1064 | 0.7192
x2 = 0.2992 | 0.7005
x2 = 0.4953 | 0.7021
x2 = 0.5974 | 0.7073
x2 = 0.6964 | 0.7145
x2 = 0.7966 | 0.72
x2 = 0.898 | 0.7541

COC(=O)OC + C1CCCCC1
viscosity [mPa·s], 101.33 kPa
Details | x1 = 0.101 | x1 = 0.1993 | x1 = 0.3026 | x1 = 0.3999 | x1 = 0.5 | x1 = 0.5996 | x1 = 0.7039 | x1 = 0.8005 | x1 = 0.9028 | x1 = 0.9031
298.15 K | 0.686 | 0.616 | – | 0.535 | 0.52 | 0.507 | 0.499 | 0.502 | 0.515 | –
303.15 K | 0.636 | 0.573 | 0.533 | 0.5 | 0.485 | 0.475 | 0.47 | 0.472 | 0.491 | –
308.15 K | 0.59 | 0.535 | 0.498 | 0.463 | 0.455 | 0.445 | 0.442 | 0.444 | – | 0.457

COCCOCCOC + C1CCCCC1
viscosity [mPa·s], 101.33 kPa
Details | x1 = 0.0981 | x1 = 0.1885 | x1 = 0.2854 | x1 = 0.3996 | x1 = 0.5024 | x1 = 0.6005 | x1 = 0.7027 | x1 = 0.8014 | x1 = 0.898
298.15 K | 0.794 | 0.765 | 0.76 | 0.769 | 0.785 | 0.808 | 0.843 | 0.882 | 0.924
303.15 K | 0.734 | 0.706 | 0.702 | 0.714 | 0.73 | 0.751 | 0.779 | 0.813 | 0.851
308.15 K | 0.677 | 0.654 | 0.653 | 0.65 | 0.679 | 0.697 | 0.725 | 0.756 | 0.792

Oc1ccccc1 + C1CCCCC1
viscosity [mPa·s], 303.15 K
Details | x2 = 0.0815 | x2 = 0.2049 | x2 = 0.2824 | x2 = 0.4033 | x2 = 0.501 | x2 = 0.5012 | x2 = 0.5905 | x2 = 0.7019 | x2 = 0.7969 | x2 = 0.8953
101 kPa | 5.517 | 3.87 | 3.177 | 2.326 | 1.864 | – | 1.552 | 1.255 | 1.066 | 0.898
101.33 kPa | 5.517 | 3.87 | 3.177 | 2.326 | – | 1.864 | 1.552 | 1.255 | 1.066 | 0.898

ClC(Cl)C(Cl)Cl + C1CCOC1
303.15 K, 101 kPa
Details | viscosity [mPa·s]
x2 = 0.0912 | 1.403
x2 = 0.1846 | 1.347
x2 = 0.2753 | 1.283
x2 = 0.4617 | 1.108
x2 = 0.5426 | 1.015
x2 = 0.6763 | 0.8466
x2 = 0.7791 | 0.7155
x2 = 0.8994 | 0.5718
x2 = 0.9513 | 0.515

ClC(Cl)C(Cl)Cl + C1COCCO1
303.15 K, 101.33 kPa
Details | viscosity [mPa·s]
x2 = 0.0869 | 1.441
x2 = 0.1835 | 1.419
x2 = 0.2833 | 1.392
x2 = 0.3491 | 1.372
x2 = 0.461 | 1.331
x2 = 0.5705 | 1.287
x2 = 0.6587 | 1.245
x2 = 0.7613 | 1.198
x2 = 0.8189 | 1.169
x2 = 0.908 | 1.128

Oc1ccccc1 + C1COCCO1
308.15 K, 101 kPa
Details | viscosity [mPa·s]
x2 = 0.1 | 4.829
x2 = 0.2 | 4.471
x2 = 0.3 | 3.888
x2 = 0.4 | 3.179
x2 = 0.5 | 2.568
x2 = 0.6 | 2.062
x2 = 0.7 | 1.664
x2 = 0.8 | 1.371
x2 = 0.9 | 1.141

ClC(Cl)C(Cl)Cl + C=C(C)C(=O)OC
303.15 K, 101 kPa
Details | viscosity [mPa·s]
x2 = 0.0942 | 1.422
x2 = 0.1967 | 1.317
x2 = 0.2785 | 1.235
x2 = 0.4978 | 0.9971
x2 = 0.598 | 0.8879
x2 = 0.7131 | 0.7662
x2 = 0.905 | 0.5902
